Values of other authors, collected in patent publication US20250078975A1, “METHODS OF PREDICTING PATIENT TREATMENT RESPONSE AND RESISTANCE VIA SINGLE-CELL TRANSCRIPTOMICS OF THEIR TUMORS” (The USA, as represented by the Secretary, Department of …, priority 2023, published 2025).

Test system: cancer cell lines
Conditions: through downregulation of Akt (Bartholomeusz et al. 2011)

Question: Which “Effect on erlotinib resistance” value does the source give for Nc1ccn([C@@H]2O[C@H](CO)[C@@H](O)C2(F)F)c(=O)n1 [gemcitabine] here?
Answer: The value was “can overcome erlotinib resistance”.
